# Source: patent US20070219155A1, “TREATING TRINUCLEOTIDE REPEAT CONDITIONS” (priority 2006, published 2007)
# What was measured:
# [1] = test system: human HD fibroblasts
# Procedure: Human HD fibroblasts (Coriell Cell Repositories) were maintained in MEM medium with 20% FBS. Cells were grown until they reached 70% confluence and then treated with the indicated concentrations of H2O2 for 30 min. The cells were washed, the medium was replaced, and the cells were allowed to recover for three days before repeating the treatment one or two more times. After the third treatment, the cells were collected and DNA was isolated. CAG repeat sizing was performed as described below.
# [2] = test system: lymphoblast cell lines obtained from HD patients; settings: FIG. 2D
# Procedure: DNA was purified from mouse tissues or cultured human fibroblasts (Kovtun et al., Hum. Mol. Genet., 13:3057-3068 (2004)) and used for PCR amplification of various microsatellites. CAG repeats at the hHD locus were amplified as described previously (Kovtun and McMurray, Nat. Genet., 27:407-411 (2001); Kovtun et al., Hum. Mol. Genet., 13:3057-3068 (2004)). […] One primer in each PCR amplification was labeled with FAM-6, and fluorescent products were analyzed using an ABI prism 3700 DNA analyzer instrument and the GeneMapper software v3 (Applied Biosystems).
# It was then determined whether peroxide treatment could directly lead to CAG expansion at the hHD locus in human HD fibroblasts in response to oxidative damage.
# [3] = test system: human HD fibroblasts; test: Comet assay of H2O2-treated cells; settings: cultured cells; FIG. 2F
smiles,measurement,setting,value
"OO [H2O2, hydrogen peroxide]",cell viability,[1],did not affect cell viability
same,expansion of CAG repeats at the hHD locus,"[1]; low (sub-lethal) doses, 30 min treatment repeated up to three times, FIG. 2C",uniformly led to expansion of CAG at intermediate or disease-length alleles
same,expansion of GAA repeats (chromosome 5 locus),"[1]; same peroxide-treated cells, FIG. 2E",expansion was not detected
same,expansion of CAG repeats at the hHD locus,[2],expansions were observed
same,single strand breaks (comet assay),[3],dose-dependent increase in single strand breaks
